Results reported in patent US12428369B2, “Crystal form of aromatic vinyl derivatives, and preparation method therefor and use thereof” (GUANGZHOU MAXINOVEL PHARMACEUTICALS CO., LTD., priority 2020, dated 2025).
≈ marks a conversion by molar mass, not a printed value.

What was measured:
Type in all cases: physicochemical
[1] = Equilibrium solubility and dissolution rate in water, SGF, FaSSIF, FeSSIF; conditions: 37° C.
Method: To further study whether the equilibrium solubility and dissolution rate of crystal forms A, B and C are different in pure water and physiological related media in vivo, the equilibrium solubility and dissolution rate of […] crystal forms in water, simulated gastric fluid (SGF), fasted-state simulated intestinal fluid (FaSSIF) and fed state simulated intestinal fluid (FeSSIF) were tested respectively.

[2] = Crystal form conversion on heating; conditions: heated to 200° C.
Method: 100 mg of the compound as shown in formula I sample was weighed and added to a bottle, then 20 times the volume of methanol was added to the bottle, and the mixture was magnetic stirred and slurried for 14 days at room temperature.
100 mg of the compound as shown in formula I sample was weighed and added to a glass bottle, and 100 times the volume of ethyl acetate (EA) and 20 times the volume of methanol (MeOH) were added to the bottle, and the sample was placed on a magnetic heating stirrer. The mixture was magnetic stirred to fully dissolve at a water bath of 50° C., filtered and the filtrate was slowly cooled to room temperature at a rate of 6° C./h, overnight, filtered under reduced pressure, and the solid was dried at 70° C. for 4 hours.
100 mg of the compound as shown in formula I sample was weighed and added to a bottle, then 30 times the volume of acetonitrile (ACN) (sample mass (g)×volume multiples) was added to the bottle, and the mixture was magnetic stirred and slurried for 2 days at room temperature, filtered under reduced pressure, and the solid was collected, and dried at 40° C. for 4 hours. The solid after drying was characterized, and the crystal form was defined as a crystal form VIII, and the XRPD pattern of the crystal form VIII is as shown in FIG. 20. […]

[3] = Dynamic vapor sorption (DVS) analysis; conditions: 25° C.
Method: (§1) The hygroscopic characteristics of the sample were tested when the humidity changed from 0% RH to 95% RH, and the dehumidifying characteristics of the sample were tested when the humidity changed from 95% RH to 0% RH. The humidity change in each step size was 5% RH, the equilibrium standard was that the weight change rate within 10 min was less than 0.01%/min, and the longest equilibrium time was 2 hours.
as §1, with “5” for “10”

[4] = Solid-state stability: content and related substances by HPLC
Method: (§2) The samples of crystal forms A, B, and C were weighed and added to a 20 mL colorless transparent glass bottle, respectively, and the sample bottles were respectively placed under the corresponding influencing factors and acceleration conditions (the sample bottles under humidity conditions were sealed with tin foil and placed with holes, and the other samples were covered tightly and placed), taken out after being placed for 1 week and 2 weeks respectively, and the sample content and related substances under various conditions were detected by HPLC; according to the same method as above, samples were respectively weighed and placed under a corresponding influencing factor and accelerated condition, and were taken out after being placed for 2 weeks for observing the appearance and XRPD characterization of each sample, and the physical stability of each crystal form was examined, and the test methods are detailed in table 14 and table 15; at the same time, 2 samples of the crystal forms A, B, and C of the compound as shown in formula I were respectively weighed accurately into 20 mL colorless transparent glass bottles and covered tightly, placed in a −20° C. refrigerator, and taken out as a standard for HPLC analysis at 2 weeks, and the test results are detailed in table 16 and table 17.

[5] = Solid-state stability: appearance and crystal form (XRPD)
Method: as §2

[6] = Acceleration (40° C./75% RH), 1 week
[7] = Acceleration (40° C./75% RH), 2 weeks
[8] = High humidity (92.5% RH), 1 week
[9] = High humidity (92.5% RH), 2 weeks
[10] = High temperature (60° C.), 1 week
[11] = High temperature (60° C.), 2 weeks
[12] = illumination (4500 LuX), 1 week
[13] = illumination (4500 LuX), 2 weeks
[14] = Illumination (4500 Lux), 2 weeks

Solubility ([1]; FaSSIF (rows r12-r14), 0.5 hours, listed as C): 9.1 µg/mL (≈ 19.4 µM)
Solubility ([1]; FaSSIF (rows r12-r14), 2 hours, listed as C): 2.2 µg/mL (≈ 4.69 µM)
Solubility ([1]; FaSSIF (rows r12-r14), 24 hours, listed as C): 4.5 µg/mL (≈ 9.58 µM)
Solubility ([1]; FaSSIF as printed (second set, rows r15-r17), 0.5 hours, listed as C): 181.7 µg/mL (≈ 387 µM)
Solubility ([1]; FaSSIF as printed (second set, rows r15-r17), 2 hours, listed as C): 174.3 µg/mL (≈ 371 µM)
Solubility ([1]; FaSSIF as printed (second set, rows r15-r17), 24 hours, listed as C): 166.6 µg/mL (≈ 355 µM)
Solubility ([1]; SGF, 0.5 hours): 0.3 µg/mL (≈ 0.639 µM)
Solubility ([1]; SGF, 2 hours): 0.2 µg/mL (≈ 0.426 µM)
Solubility ([1]; SGF, 24 hours): 0.5 µg/mL (≈ 1.06 µM)
Solubility ([1]; Water, 0.5 hours): 1.7 µg/mL (≈ 3.62 µM)
Solubility ([1]; Water, 2 hours): 6.5 µg/mL (≈ 13.8 µM)
Solubility ([1]; Water, 24 hours): 1.8 µg/mL (≈ 3.83 µM)
crystal form after heating [2]: converted into the crystal form A
hygroscopicity ([3]; assessment in words): hygroscopic
weight gain ([3]; from 0% RH to 95% RH): 4.767%
Content [4, 6]: 100.06%
Total related substances [4, 6]: 0.00%
Content [4, 7]: 99.89%
Total related substances [4, 7]: 0.00%
Content ([4]; Control, −20° C., 2 weeks): 100.00%
Total related substances ([4]; Control, −20° C., 2 weeks): 0.00%
Content [4, 8]: 101.55%
Total related substances [4, 8]: 0.00%
Content [4, 9]: 100.59%
Total related substances [4, 9]: 0.00%
Content [4, 10]: 98.41%
Total related substances [4, 10]: 0.00%
Content [4, 11]: 100.18%
Total related substances [4, 11]: 0.00%
Content [4, 12]: 102.18%
Total related substances [4, 12]: 0.52%
Content [4, 13]: 98.64%
Total related substances [4, 13]: 1.56%
Appearance [5, 7]: Off-white
Crystal form (XRPD) after storage [5, 7]: Crystal form C
Appearance ([5]; Control, −20° C., 2 weeks): Off-white
Crystal form (XRPD) after storage ([5]; Control, −20° C., 2 weeks, listed as Crystal form C-Control): Crystal form C
Appearance [5, 9]: Off-white
Crystal form (XRPD) after storage [5, 9]: Crystal form C
Appearance [5, 11]: Off-white
Crystal form (XRPD) after storage [5, 11]: Crystal form C
Appearance [5, 14]: Off-white
Crystal form (XRPD) after storage [5, 14]: Crystal form C
physical stability ([5]; four storage conditions, 2 weeks (conclusion)): good
Appearance ([5]; high temperature, high humidity, illumination and acceleration, 2 weeks (conclusion)): off-white
SMILES: Cc1c(/C=C/c2cc(CN[C@@](C)(CO)C(=O)O)ccc2C(F)(F)F)cccc1-c1ccccc1 [Crystal form C]
